Laboratory results published in ChEMBL document CHEMBL5365466, “Discovery of Triazolyl Derivatives of Cucurbitacin B Targeting IGF2BP1 against Non-Small Cell Lung Cancer” (J Med Chem, 2023).
Active and inactive are the calls of the source. No cut-off for these calls is given here.

Assays:
SK-OV-3 = assay: Antiproliferative activity against human SK-OV-3 cells assessed as cell growth inhibition incubated for 72 hrs by SRB assay; format: functional, cell-based; settings: SK-OV-3, 72 h
A549 [1] = assay: Antiproliferative activity against human A549 cells with IGF2BP1 knockdown assessed as cell growth inhibition incubated for 72 hrs by SRB assay; format: functional, cell-based; settings: A549, 72 h
A549 [2] = assay: Induction of cell cycle arrest in human A549 cells assessed as accumulation of cells at S phase at 0.1 uM incubated for 24 hrs by PI staining based flow cytometric analysis (reference value: 23 %); format: functional
[3] = Acute toxicity in C57BL/6J mouse assessed as change in body weight at 0.75 mg/kg,ip measured after 14 days; format: organism-based; settings: in vivo, 336 h, time 14 day
A549 [4] = assay: Antitumor activity against human A549 cells xenografted in BALB/c mouse assessed as decrease in tumor weight at 0.5 mg/kg,ip administrated for 21 days; format: functional, organism-based; settings: time 21.0 day
HCT-116 = assay: Antiproliferative activity against human HCT-116 cells assessed as cell growth inhibition at 0.1 uM incubated for 72 hrs by SRB assay; format: functional
[5] = Acute toxicity in BALB/c mouse xenografted with human A549 cells assessed as change in body weight at 0.5 mg/kg,ip administrated for 21 days; format: organism-based; settings: in vivo, 504 h, time 21 day
A549 [6] = assay: Induction of cell cycle arrest in human A549 cells assessed as accumulation of cells at G2 phase at 0.1 uM incubated for 24 hrs by PI staining based flow cytometric analysis (reference value: 9.26 %); format: functional
A549 [7] = assay: Induction of autophagy in human A549 cells assessed as upregulation of LC3II/LC3I ratio at 0.1 to 0.5 uM incubated for 48 hrs by Western blotting analysis; format: functional, cell-based; settings: dose 0.1-0.5 µM
A549 [8] = assay: Induction of apoptosis in human A549 cells assessed as downregulation of CDK4 expression incubated for 48 hrs by Western blotting analysis; format: functional, cell-based
[9] = Selectivity index, ratio of IC50 for antiproliferative activity against human L02 cells to IC50 for antiproliferative activity against human SK-OV-3 cells
[10] = Antiproliferative activity against human L02 cells assessed as cell growth inhibition incubated for 72 hrs by SRB assay; format: toxicity, cell-based
A549 [11] = assay: Antitumor activity against human A549 cells xenografted in BALB/c mouse assessed as increase in nuclear pyknosis at 0.5 mg/kg,ip administrated for 21 days by hematoxylin and eosin staining based microscopic analysis; format: functional, organism-based; settings: time 21.0 day
A549 [12] = assay: Induction of apoptosis in human A549 cells assessed as downregulation of Cyclin D1 expression incubated for 48 hrs by Western blotting analysis; format: functional, cell-based
A549 [13] = assay: Induction of apoptosis in human A549 cells assessed as downregulation of BCL-2 expression incubated for 48 hrs by Western blotting analysis; format: functional, cell-based
A549 [14] = assay: Induction of cell cycle arrest in human A549 cells assessed as accumulation of cells at S phase at 0.2 uM incubated for 24 hrs by PI staining based flow cytometric analysis (reference value: 23 %); format: functional
A549 [15] = assay: Induction of cell cycle arrest in human A549 cells assessed as accumulation of cells at G1 phase at 0.1 uM incubated for 24 hrs by PI staining based flow cytometric analysis (reference value: 65.6 %); format: functional
[16] = Selectivity index, ratio of IC50 for antiproliferative activity against human L02 cells to IC50 for antiproliferative activity against human MDA-MB-231 cells; format: toxicity, cell-based; settings: L02 cells versus MDA-MB-231 cells, read-out: Ratio IC50
[17] = molecular target: T1, Insulin-like growth factor 2 mRNA-binding protein 1 (Homo sapiens, UniProt Q9NZI8); assay: Binding affinity to His-tagged recombinant IGF2BP1 (unknown origin) assessed as dissociation constant by surface plasmon resonance assay
T1 sequence (Q9NZI8 whole entry): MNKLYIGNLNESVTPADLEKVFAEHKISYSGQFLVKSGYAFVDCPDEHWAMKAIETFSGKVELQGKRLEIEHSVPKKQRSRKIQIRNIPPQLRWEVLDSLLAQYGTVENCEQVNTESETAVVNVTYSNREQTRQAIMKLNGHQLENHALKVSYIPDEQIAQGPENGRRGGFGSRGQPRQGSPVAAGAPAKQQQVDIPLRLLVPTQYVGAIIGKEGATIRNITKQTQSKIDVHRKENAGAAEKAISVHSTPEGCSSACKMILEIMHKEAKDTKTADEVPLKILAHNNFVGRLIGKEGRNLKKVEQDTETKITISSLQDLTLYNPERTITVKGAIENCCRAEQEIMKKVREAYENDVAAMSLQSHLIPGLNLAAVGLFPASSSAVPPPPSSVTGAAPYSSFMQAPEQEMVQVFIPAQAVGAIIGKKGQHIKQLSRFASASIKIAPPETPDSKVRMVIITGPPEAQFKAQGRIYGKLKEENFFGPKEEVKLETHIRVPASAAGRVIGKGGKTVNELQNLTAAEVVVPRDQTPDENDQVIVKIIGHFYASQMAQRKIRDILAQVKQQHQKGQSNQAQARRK

CFPAC-1 = assay: Antiproliferative activity against human CFPAC-1 cells assessed as cell growth inhibition incubated for 72 hrs by SRB assay; format: functional, cell-based; settings: CFPAC-1, 72 h
[18] = Selectivity index, ratio of IC50 for antiproliferative activity against human L02 cells to IC50 for antiproliferative activity against human HeLa cells; format: toxicity, cell-based; settings: L02 cells versus HeLa cells, read-out: Ratio IC50
[19] = molecular target: T1, Insulin-like growth factor 2 mRNA-binding protein 1; assay: Binding affinity to human recombinant IGF2BP1 assessed as dissociation constant by microscale thermophoresis analysis
BXPC-3 = assay: Antiproliferative activity against human BXPC-3 cells assessed as cell growth inhibition incubated for 72 hrs by SRB assay; format: functional, cell-based; settings: BXPC-3, 72 h
A549 [20] = assay: Induction of apoptosis in human A549 cells incubated for 48 hrs by Annexin V-FITC/PI staining based flow cytometric analysis; format: functional, cell-based
[21] = molecular target: T1, Insulin-like growth factor 2 mRNA-binding protein 1; assay: Binding affinity to IGF2BP1 in human A549 cells assessed as protein stabilization at 1 uM at 52 degreeC incubated for 2 hrs by CETSA; format: cell-based
[22] = Antiproliferative activity against human L02 cells assessed as cell growth inhibition at 1 uM incubated for 72 hrs by SRB assay; format: toxicity, cell-based
A549 [23] = assay: Induction of apoptosis in human A549 cells assessed as downregulation of c-Myc expression incubated for 48 hrs by Western blotting analysis; format: functional, cell-based
A549 [24] = assay: Antitumor activity against human A549 cells xenografted in BALB/c mouse assessed as decrease in tumor volume at 0.5 mg/kg,ip administrated for 21 days; format: functional, organism-based; settings: time 21.0 day
MDA-MB-231 = assay: Antiproliferative activity against human MDA-MB-231 cells assessed as cell growth inhibition incubated for 72 hrs by SRB assay; format: functional, cell-based; settings: MDA-MB-231, 72 h
A549 [25] = assay: Induction of apoptosis in human A549 cells assessed as downregulation of BCL-xl expression incubated for 48 hrs by Western blotting analysis; format: functional, cell-based
PANC-1 = assay: Antiproliferative activity against human PANC-1 cells assessed as cell growth inhibition incubated for 72 hrs by SRB assay; format: functional, cell-based; settings: PANC-1, 72 h
A549 [26] = assay: Induction of cell cycle arrest in human A549 cells assessed as accumulation of cells at G2 phase at 0.5 uM incubated for 24 hrs by PI staining based flow cytometric analysis (reference value: 9.26 %); format: functional
A549 [27] = assay: Induction of cell cycle arrest in human A549 cells assessed as accumulation of cells at S phase at 0.5 uM incubated for 24 hrs by PI staining based flow cytometric analysis (reference value: 23 %); format: functional
A549 [28] = assay: Induction of autophagy in human A549 cells assessed as upregulation of Beclin-1 expression at 0.1 to 0.5 uM incubated for 48 hrs by Western blotting analysis; format: functional, cell-based; settings: dose 0.1-0.5 µM
A549 [29] = assay: Antitumor activity against human A549 cells xenografted in BALB/c mouse assessed as increase in apoptosis at 0.5 mg/kg,ip administrated for 21 days by TUNEL staining based analysis; format: functional, organism-based; settings: time 21.0 day
[30] = molecular target: T1, Insulin-like growth factor 2 mRNA-binding protein 1; assay: Binding affinity to IGF2BP1 in human A549 cells assessed as protein stabilization at 1 uM at 49 degreeC incubated for 2 hrs by CETSA; format: cell-based
[31] = Antiproliferative activity against human L02 cells assessed as cell growth inhibition at 0.1 uM incubated for 72 hrs by SRB assay; format: toxicity, cell-based
[32] = Selectivity index, ratio of IC50 for antiproliferative activity against human L02 cells to IC50 for antiproliferative activity against human A549 cells; format: toxicity, cell-based; settings: L02 cells versus A549 cells, read-out: Ratio IC50

For `CC(=O)OC(C)(C)/C=C/C(=O)[C@](C)(O)[C@H]1[C@H](O)C[C@@]2(C)[C@@H]3CC=C4[C@@H](C[C@H](OC(=O)Cn5ncn(-c6ccc(F)cc6)c5=O)C(=O)C4(C)C)[C@]3(C)C(=O)C[C@]12C`, which IC50 (SK-OV-3) is on record?
The IC50 was 0.054 µM.

What about the IC50 (A549 [1]) of the same molecule?
The IC50 was 0.092 µM.

What about the Activity (A549 [2]) of the same molecule?
The Activity was 31.1%.

What about the Activity [3] of the same molecule?
Its Activity is “Toxic”.

What about the Activity (A549 [4]) of the same molecule?
The Activity was “Active”.

What about the inhibition at 0.1 µM (HCT-116) of the same molecule?
The inhibition at 0.1 µM was 73.1%.

What about the Activity [5] of the same molecule?
The Activity was “Non-Toxic”.

And the Activity (A549 [6])?
Its Activity is 10.5%.

And the Activity (A549 [7])?
The Activity was “Active”.

What about the Activity (A549 [8]) of the same molecule?
The Activity was “Dose-Dependent Effect”.

What about the “Ratio IC50” value [9] of the same molecule?
The value was 1.85.

And the IC50 at 72 h [10]?
The IC50 at 72 h was 0.1 µM.

And the Activity (A549 [11])?
Its Activity is “Active”.

What about the Activity (A549 [12]) of the same molecule?
The Activity was “Dose-Dependent Effect”.

What about the Activity (A549 [13]) of the same molecule?
Its Activity is “Dose-Dependent Effect”.

What about the Activity (A549 [14]) of the same molecule?
Its Activity is 16.6%.

And the Activity (A549 [15])?
Its Activity is 57.7%.

And the selectivity ratio [16]?
The selectivity ratio was 2.04.

And the Kd [17]?
The Kd was 0.00288 µM.

And the IC50 (CFPAC-1)?
Its IC50 is 0.037 µM.

What about the selectivity ratio [18] of the same molecule?
The selectivity ratio was 6.67.

And the Kd [19]?
The Kd was 0.0109 µM.

What about the IC50 (BXPC-3) of the same molecule?
Its IC50 is 0.018 µM.

What about the Activity (A549 [20]) of the same molecule?
Its Activity is “Dose-Dependent Effect”.

And the Activity [21]?
Its Activity is “Active”.

What about the inhibition at 72 h, 1 µM [22] of the same molecule?
The inhibition at 72 h, 1 µM was 68.9%.

And the Activity (A549 [23])?
Its Activity is “Dose-Dependent Effect”.

And the Activity (A549 [24])?
The Activity was “Active”.

What about the IC50 (MDA-MB-231) of the same molecule?
The IC50 was 0.049 µM.

And the Activity (A549 [25])?
The Activity was “Dose-Dependent Effect”.

What about the IC50 (PANC-1) of the same molecule?
Its IC50 is 0.088 µM.

What about the Activity (A549 [26]) of the same molecule?
The Activity was 37.3%.

What about the Activity (A549 [27]) of the same molecule?
The Activity was 8.96%.

What about the Activity (A549 [28]) of the same molecule?
The Activity was “inactive”.

And the Activity (A549 [29])?
The Activity was “Active”.

What about the Activity [30] of the same molecule?
The Activity was “Active”.

What about the inhibition at 72 h, 0.1 µM [31] of the same molecule?
Its inhibition at 72 h, 0.1 µM is 50.5%.

What about the selectivity ratio [32] of the same molecule?
The selectivity ratio was 11.1.
